Test results published in ChEMBL document CHEMBL3045284 (Crop Prot, 2009).

What was measured:
Format in all cases: functional
Pyricularia oryzae [1] = test: Antifungal activity against drug-sensitive Magnaporthe oryzae infected six-leaf stage of rice plant assessed as reduction of susceptible lesion number per leaf area at 2 time MIC treated 24 hr before fungal infection measured after 6 days relative to control; set-up: scale not given: the % may be the effect or the level left
Pyricularia oryzae [2] = test: Antifungal activity against Magnaporthe oryzae infected six-leaf stage of rice plant assessed susceptible lesion number per leaf area at MIC treated 24 hr before fungal infection measured after 24 hr
Pyricularia oryzae [3] = test: Antifungal activity against Magnaporthe oryzae infected six-leaf stage of rice plant assessed susceptible lesion number per leaf area at 2 time MIC treated 24 hr before fungal infection measured after 24 hr
Pyricularia oryzae [4] = test: Antifungal activity against drug-sensitive Magnaporthe oryzae infected six-leaf stage of rice plant assessed as disease recovery treated 24 hr before fungal infection measured after 24 hr
Pyricularia oryzae [5] = test: Antifungal activity against Magnaporthe oryzae infected six-leaf stage of rice plant assessed as disease recovery at 8 time MIC treated 24 hr before fungal infection measured after 24 hr
Pyricularia oryzae [6] = test: Antifungal activity against Magnaporthe oryzae infected six-leaf stage of rice plant assessed susceptible lesion number per leaf area at 8 time MIC treated 24 hr before fungal infection measured after 24 hr
Pyricularia oryzae [7] = test: Antifungal activity against drug-sensitive Magnaporthe oryzae infected six-leaf stage of rice plant assessed susceptible lesion number per leaf area treated 24 hr before fungal infection measured after 24 hr
Pyricularia oryzae [8] = test: Antifungal activity against Magnaporthe oryzae infected six-leaf stage of rice plant assessed as disease recovery at 4 time MIC treated 24 hr before fungal infection measured after 24 hr
Pyricularia oryzae [9] = test: Antifungal activity against drug-sensitive Magnaporthe oryzae infected six-leaf stage of rice plant assessed as reduction of disease recovery at 2 time MIC treated 24 hr before fungal infection measured after 6 days relative to control; set-up: scale not given: the % may be the effect or the level left
Pyricularia oryzae [10] = test: Antifungal activity against Magnaporthe oryzae infected six-leaf stage of rice plant assessed as disease recovery at MIC treated 24 hr before fungal infection measured after 24 hr
Pyricularia oryzae [11] = test: Antifungal activity against Magnaporthe oryzae infected six-leaf stage of rice plant assessed susceptible lesion number per leaf area at 4 time MIC treated 24 hr before fungal infection measured after 24 hr
Pyricularia oryzae [12] = test: Antifungal activity against Magnaporthe oryzae infected six-leaf stage of rice plant assessed as disease recovery at 2 time MIC treated 24 hr before fungal infection measured after 24 hr

Which results are given for `CCOP(=O)(Sc1ccccc1)Sc1ccccc1` [EDIFENPHOS]?
Activity (Pyricularia oryzae [1]): 63.5%; Activity (Pyricularia oryzae [2]): 0.19 cm2; Activity (Pyricularia oryzae [3]): 0.14 cm2; Activity (Pyricularia oryzae [4]): 0.27%; Activity (Pyricularia oryzae [5]): 0.08%; Activity (Pyricularia oryzae [6]): 0.03 cm2; Activity (Pyricularia oryzae [7]): 0.1 cm2; Activity (Pyricularia oryzae [8]): 0.18%; Activity (Pyricularia oryzae [9]): 55.6%; Activity (Pyricularia oryzae [10]): 0.49%; Activity (Pyricularia oryzae [11]): 0.07 cm2; Activity (Pyricularia oryzae [12]): 0.35%

For `CC(C)OP(=O)(OC(C)C)SCc1ccccc1` [IPROBENFOS], which Activity (Pyricularia oryzae [1]) is on record?
Its Activity is 28.1%.

What about the Activity (Pyricularia oryzae [2]) of the same compound?
The Activity was 1.28 cm2.

What about the Activity (Pyricularia oryzae [3]) of the same compound?
Its Activity is 1.13 cm2.

What about the Activity (Pyricularia oryzae [4]) of the same compound?
The Activity was 0.8%.

And the Activity (Pyricularia oryzae [5])?
Its Activity is 0.45%.

What about the Activity (Pyricularia oryzae [6]) of the same compound?
The Activity was 0.39 cm2.

And the Activity (Pyricularia oryzae [7])?
Its Activity is 0.73 cm2.

What about the Activity (Pyricularia oryzae [8]) of the same compound?
Its Activity is 0.87%.

And the Activity (Pyricularia oryzae [9])?
Its Activity is 28.8%.

What about the Activity (Pyricularia oryzae [10]) of the same compound?
Its Activity is 1.23%.

What about the Activity (Pyricularia oryzae [11]) of the same compound?
Its Activity is 0.93 cm2.

And the Activity (Pyricularia oryzae [12])?
Its Activity is 1.17%.
